Laboratory results: publication PMC4165007 (The Indian Journal of Medical Research, 2014)

Tests used:
[1] = sublingual; cited from earlier work
[2] = cited from earlier work
pepsin = pepsin (Sus scrofa, UniProt P00791); test: Digestion with simulated gastric fluid; format: in vitro ADME; settings: SGF pepsin, gastric pH, data not shown
[3] = cited from earlier work; remark: listed apart in the source
[4] = oral; cited from earlier work
purified chymotrypsin = test: Incubation with purified chymotrypsin; format: in vitro ADME; settings: data not shown

pepsin, sequence (P00791 60-385): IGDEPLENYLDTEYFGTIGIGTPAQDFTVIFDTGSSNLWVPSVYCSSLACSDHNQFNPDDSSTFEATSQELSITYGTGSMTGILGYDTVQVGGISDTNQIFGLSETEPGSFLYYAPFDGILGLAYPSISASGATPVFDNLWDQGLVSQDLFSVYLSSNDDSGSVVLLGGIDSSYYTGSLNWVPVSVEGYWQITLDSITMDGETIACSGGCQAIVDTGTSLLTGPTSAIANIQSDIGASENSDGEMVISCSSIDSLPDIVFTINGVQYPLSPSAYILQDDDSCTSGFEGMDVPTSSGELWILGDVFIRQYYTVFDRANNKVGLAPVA

Row | Compound | bioavailability, given sublingually in humans [1] | stability during digestion with human gastric juice [2] | OT hydrolysis on increasing the peptic digestion time to 12 h (pepsin) | half-life of injected OT in the plasma [3] | bioavailability, given orally to pigs [4] | effect of incubation with purified chymotrypsin (purified chymotrypsin)
1 | CC[C@H](C)[C@@H]1NC(=O)[C@H](Cc2ccc(O)cc2)NC(=O)[C@@H](N)CSSC[C@@H](C(=O)N2CCC[C@H]2C(=O)N[C@@H](CC(C)C)C(=O)NCC(N)=O)NC(=O)[C@H](CC(N)=O)NC(=O)[C@H](CCC(N)=O)NC1=O [OT, Oxytocin] | very poor | stable | did not result in OT hydrolysis | 5 to 7 min | very poor | led to its hydrolysis
2 | arginine-vasopressin |  | stable |  |  |  | 
